# Laboratory results reported in patent publication US9163077B2, “RhoC-based immunotherapy” (RHOVAC APS, priority 2007, dated 2015).
# No end group written: not given here.
# Assays:
# [1] = tested on: peptide epitope-specific INF-γ releasing effector cells; experiment: IFN-γ ELISPOT assay on in vitro stimulated PBL/PBMC; format: cell-based, human; conditions: for specific T-cell responses among PBMC: HLA-A3+ healthy controls (HD); for specific T-cell responses among PBL: HLA-A3+ renal cell carcinoma (RCC) patients
# Experimental: Peripheral blood lymphocytes (PBL) from HLA-A3^+ cancer patients or peripheral blood mononuclear cells (PBMC) from healthy controls were obtained from the University Hospital Herlev, Denmark. Cells were cryopreserved in FCS with 10% DMSO. Tissue typing was conducted at the Department of Clinical Immunology, The State Hospital, Copenhagen, Denmark. Informed consent was obtained from the patients before any of these measures.
# To extend the sensitivity of the ELISPOT assay, PBL were stimulated once before analysis. At day 0, PBL were thawed and plated in 24-well plates (Nunc, Roskilde, Denmark) in X-Vivo medium (Cambrex Bio Science Copenhagen, Vallensbaek Strand, Denmark) with 5% heat-inactivated human serum in the presence of 10 μM peptide (GenScript, Scotch Plains, US). The following day 20 U/ml IL-2 (PeproTech, London, UK) was added to the cultures. The cultured cells were tested for reactivity in the ELISPOT on day 8.
# The ELISPOT assay was used to quantify peptide epitope-specific INF-γ releasing effector cells as described previously (WO 2005/049073, Example 1.2). Briefly, nitrocellulose bottomed 96-well plates (MultiScreen MAIP N45, Millipore, Hedehusene, Denmark) were coated with anti-IFN-γ antibody (1-D1K, Mabtech, Nacka, Sweden). The wells were washed, blocked with X-vivo medium before adding 10^4 stimulator T2-A3 cells (with or without 10 μM peptide; Rho1L2: RLGLQVRKNK; Rho1: RAGLQVRKNK (GenScript, Scotch Plains, US)) and effector cells at different concentrations. The plates were incubated overnight. The following day, medium was discarded and the wells were washed prior to addition of biotinylated secondary antibody (7-B6-1-Biotin, Mabtech, Nacka, Sweden). The plates were incubated for 2 hrs, washed and Avidin-enzyme conjugate (AP-Avidin, Calbiochem, Life Technologies, Inc., Roskilde, Denmark) was added to each well. Plates were incubated at RT for 1 hr before the enzyme substrate NBT/BCIP (Gibco Life Technology, Taastrup, Denmark) was added to each well and incubated at RT for 5-10 min. The reaction was terminated with tap-water upon the emergency of dark purple spots. The spots were counted using the ImmunoSpot® Series 2.0 Analyzer (CTL Analyzers, LLC, Cleveland, US) and the peptide specific CTL frequency could be calculated from the numbers of spot-forming cells. The number of antigen-specific spots was calculated by subtracting the mean number of spots of the control wells from the mean number of spots in the positive wells; responses with a p-value<0.05 (Student t-test for unpaired samples) were considered as positive. The definition is in respect with the CIMT Monitoring Panel inter-laboratory testing project (www.c-imt.org).
# [2] = target: HLA-A3 (Homo sapiens, UniProt P04439); experiment: Assembly assay for peptide binding to MHC class I molecules; conditions: HLA-A3, lysate of T2-A3 cells, FIG. 2; read-out: peptide concentration required for half maximal recovery of class I MHC molecules (C50 value)
# Experimental: The binding affinity of the synthetic peptides (Genscript, Scotch Plains, US) to HLA-A3 molecules was measured by means of the assembly assay as described (13). The assay is based on the stabilization of the class I molecule after loading of different concentrations of peptide to the TAP-deficient cell line T2-A3. Briefly, T2-A3 cells were incubated in methionine-free RPMI 1640 (Gibco BRL, Paisley, UK) with 10% dialysed FCS. Subsequently, cells were metabolically labelled with 50 μCi ^35S-methionine (Amersham, Birkeroed, Denmark). […] Cell nuclei were removed by ultracentrifugation. The supernatant of T2-A3 cells was heated for 5 min at 45° C. in order to reduce background signals by preferentially destabilizing empty HLA-A3. The samples were precleared by addition of Pansorbin (Calbiochem, Darmstadt, Germany) and left on rotation overnight. Stably folded HLA molecules were immune-precipitated using the HLA class I-specific, conformation-dependent mAb W6/32. A-Sepharose beads were added to collect the folded MHC complexes and separated by isoelectric focusing gel electropheresis. MHC heavy chains were quantified using the ImageGauge Phosphorimager program (FUJI Photo Film). The intensity of the band is directly related to the amount of peptide-bound class I MHC complex recovered during the assay. Subsequently, the extent of stabilization of HLA-A3 is directly related to the binding affinity of the added peptide. The C50-value was calculated for each peptide as the peptide concentration sufficient for half maximal stabilization.
# [3] = tested on: T2-A3 cells; experiment: 51Cr-release cytotoxicity assay, peptide-pulsed T2-A3 target cells; format: cell-based, human; conditions: for lysis of peptide-pulsed T2-A3 cells by CTL clone 9: FIG. 4b; for lysis of peptide-pulsed T2-A3 cells by Rho1L2-stimulated CTL bulk cultures: bulk culture from MM patient after four restimulations, FIG. 4a, unpulsed cells not lysed
# Experimental: (§1) PBL from a melanoma (MM) patient were stimulated with irradiated (20 Gy) autologous Rho1L2-loaded DC (PBL:DC ratio=3×10^6:3×10^5). The following day 120 U/ml IL-2 (PeproTech, London, UK) was added. Stimulation of the cultures were carried out every 10 days with Rho1L2-loaded irradiated autologous DC (2×) followed by Rho1L2-loaded irradiated autologous PBL (3×). Hundred and twenty U/ml IL-2 (PeproTech, London, UK) was added after each stimulation. After one month growing cultures were tested for specificity for Rho1L2.
# (§2) PBL from a specific culture were cloned by limiting dilution in the presence of cloning mix containing 10^6/ml irradiated (20 Gy) lymphocytes from three healthy donors in X-vivo with 5% heat-inactivated human serum, 25 mM HEPES buffer (GibcoBRL, Paisley, UK), and 120 U/ml IL-2 (PeproTech, London, UK). The plates were incubated at 37° C./5% CO2. Every 3-4 days 50 μl fresh media were added containing IL-2 to a final concentration of 120 U/ml. Growing clones were expanded using cloning mix cells (5×10^4 cells/well) and IL-2. After expansion the clones were tested for specificity and cytotoxic potential in a standard ^51Cr-release assay.
# Conventional ^51Cr-release assays for CTL-mediated cytotoxicity were carried out as described elsewhere (Andersen et al., (1999) J Immunol 163:3812-3818). Target cells were T2-A3 cells, the HLA-A3^+ breast cancer cell line BT-20, the HLA-A3^+ colon cancer cell line HT-29, the HLA-A3^+ head and neck cancer cell line CRL-2095 (all available at the American Type Culture Collection (ATCC)), the HLA-A3^+ melanoma cell line FM9, the HLA-A3^− melanoma cell line FM82, and the HLA-A3^+ melanoma cell line FM3 (Kirkin et al., (1995) Cancer Immunol Immunother 41: 71-81), with or without added HLA specific mAb W6/32 (Barnstable et al., (1978) Cell 14: 9-20) (2 μg/100 μl) (Schmidt et al., (2003) Blood 102: 571-576) or the HLA-A3 specific antibody GAPA3 (Sire et al., (1988) 140: 2422-2430).
# [4] = tested on: HLA-A3+ melanoma cell line FM3; experiment: 51Cr-release cytotoxicity assay, FM3 target cells; format: cell-based, human; conditions: unlabeled T2-A3 cells pulsed with peptide, inhibitor to target ratio 20:1, FIG. 5b
# Experimental: as §1, §2
# Conventional ^51Cr-release assays for CTL-mediated cytotoxicity were carried out as described elsewhere (Andersen et al., (1999) J Immunol 163:3812-3818). […]
# Sequence of HLA-A3 (P04439 25-365): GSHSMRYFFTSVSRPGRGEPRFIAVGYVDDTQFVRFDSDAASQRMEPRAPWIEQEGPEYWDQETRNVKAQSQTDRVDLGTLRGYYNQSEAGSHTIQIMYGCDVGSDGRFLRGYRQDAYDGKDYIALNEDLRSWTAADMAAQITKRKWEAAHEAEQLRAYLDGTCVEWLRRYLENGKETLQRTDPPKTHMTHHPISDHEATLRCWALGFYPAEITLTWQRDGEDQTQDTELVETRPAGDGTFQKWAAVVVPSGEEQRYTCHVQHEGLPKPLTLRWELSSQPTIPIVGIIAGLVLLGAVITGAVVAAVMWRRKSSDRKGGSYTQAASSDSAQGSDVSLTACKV
# Sequence of HLA-A3 (P61769 21-119 partner): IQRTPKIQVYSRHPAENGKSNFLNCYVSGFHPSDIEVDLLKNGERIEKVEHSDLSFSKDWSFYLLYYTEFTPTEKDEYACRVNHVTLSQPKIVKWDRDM
Molecule,specific T-cell responses among PBMC [1],"patients with specific T-cell responses among PBL ([1]; HLA-A3+ melanoma (MM) patients, PBL stimulated once in vitro, FIG. 3)",specific T-cell responses among PBL [1],EC50 [2],lysis of peptide-pulsed T2-A3 cells by CTL clone 9 [3],lysis of peptide-pulsed T2-A3 cells by Rho1L2-stimulated CTL bulk cultures [3],cold target inhibition of clone 9 killing of FM3 cells [4]
"RLGLQVRKNK [Rho1L2, RLGLQVRKNK]",No responses were detected,3 out of 10,No responses were detected,4 µM,effectively lysed,efficiently,completely abrogated
"RAGLQVRKNK [Rho1, RAGLQVRKNK]",No responses were detected,,No responses were detected,> 40 µM,effectively lysed,efficiently,
"CC[C@H](C)[C@H](N)C(=O)N[C@@H](CC(C)C)C(=O)N[C@@H](CCCNC(=N)N)C(=O)NCC(=O)N[C@@H](CO)C(=O)N[C@H](C(=O)N[C@@H](C)C(=O)N[C@@H](Cc1c[nH]cn1)C(=O)N[C@@H](CCCCN)C(=O)O)C(C)C [Influenza NP265-273, ILRGSVAHK, reference compound]",,,,0.3 µM,,,
